The values below come from patent US8673929B2, “4,6-di- and 2,4,6-trisubstituted quinazoline derivatives and pharmaceutical compositions useful for treating viral infections” (priority 2006, dated 2014).

One series has as its system Huh-7 HCV replicon cells. Description: CC50 assay in the anti-HCV replicon assay (CellTiter-Glo). The following applies: 3 days incubation, CellTiter-Glo luminescence. It counts as cell-based, human. The method in brief: (§1)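 Huh-7 cells harbouring an HCV replicon (6000/well) incubated 3 days at 37° C with 3-fold serially diluted compound (0.5% DMSO final where used). EC50 from luciferase luminescence of lysed cells; CC50 from CellTiter-Glo luminescence in parallel plates.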
In general terms: Replicon systems follow genome replication, usually without infectious particles.

In a further series the target is HCV replicon. The series is described as follows: Anti-HCV replicon assay, EC50 (luciferase readout). It counts as cell-based. The following applies: Huh-7 HCV replicon cells, 3 days incubation, luciferase luminescence. The method, boiled down:
as §1

Series [1] is described as follows: CC50 assay in the anti-HCV replicon assay (CellTiter-Glo). In kind it is cell-based, human. The following applies: human, Huh-7 hepatoma cells harbouring an HCV replicon; Huh-7 HCV replicon cells, 3 days incubation, CellTiter-Glo luminescence. The method, boiled down:
as §1

`CONC(=O)c1ccc(-c2ccc3nc(N)nc(OCC4CC4)c3c2)cc1` [Example 136]: in the series on Huh-7 HCV replicon cells, the CC50 was 10 to 20 µM. In addition, at HCV replicon, the EC50 lay in the range of 0.3 to 1 µM.

In turn, `CCOc1nc(N)nc2ccc(-c3ccc(C(=O)N4CCCCC4)cc3)cc12` [Example 148, [4-(2-amino-4-ethoxy-quinazolin-6-yl)-pheny]-piperidin-1-yl-methanone] showed a CC50 with Huh-7 HCV replicon cells of more than 20 µM. The EC50 at HCV replicon lay within 1 to 10 µM.

In the case of `CN(C)CCCOc1nc(N)nc2ccc(-c3ccc(C(F)(F)F)cc3C(F)(F)F)cc12` [Example 226, 6-(2,4-bis-trifluoromethyl-phenyl)-4-(3-dimethyl-aminopropoxy)-quinazolin-2-ylamine], the CC50 in the series with Huh-7 HCV replicon cells is more than 20 µM. On HCV replicon, this molecule came in with an EC50 of 1 to 10 µM.

The molecule `CN(C)CCCOc1nc(N)nc2ccc(-c3ccc(F)c(Cl)c3)cc12` [Example 228, 6-(3-Chloro-4-fluoro-phenyl)-4-(3-dimethyl-aminopropoxy)-quinazolin-2-ylamine] displayed a CC50 with Huh-7 HCV replicon cells of more than 20 µM. Further, the EC50 at HCV replicon lay in the range of 1 to 10 µM.

In turn, `CCOc1ncnc2ccc(-c3cn[nH]c3)cc12` [Example 247, 4-ethoxy-6-(1H-pyrazo-4-yl)-quinazoline] yielded a CC50 in the series with Huh-7 HCV replicon cells of more than 20 µM. This molecule also registered an EC50 at HCV replicon of 0.3 to 1 µM.

`CC(C)Oc1ncnc2ccc(-c3ccc(F)cc3)cc12` [Example 248, 6-(4-Fluorophenyl)-4-isopropoxy-quinazoline] had a CC50 at 3 days in series [1] of more than 20 µM. The EC50 with HCV replicon (Hepatitis C virus, 72 h) is 1 to 10 µM.

In turn, `CN(C)CCNC(=O)c1ccc(-c2ccc3nc(NCc4ccc(F)cc4)nc(O[C@H]4CCOC4)c3c2)cc1` [Example 249, (S)-4-(2-(4-fluorobenzylamino)-4-(tetrahydrofuran-3-yloxy)quinazolin-6-yl)-N-(2-(dimethylamino)ethyl)benzamide] registered a CC50 at 3 days in series [1] of less than 10 µM. The EC50 in the series on HCV replicon (Hepatitis C virus, 72 h) was less than 0.3 µM.

As to `CCOc1nc(NCc2ccc(S(N)(=O)=O)cc2)nc2ccc(-c3ccc(F)cc3)cc12` [Example 250, 4-{[4-Ethoxy-6-(4-fluoro-phenyl)-quinazolin-2-ylamino]-methyl}-benzenesulfonamide], the CC50 at 3 days in series [1] was less than 10 µM. Also, the EC50 in the series with HCV replicon (Hepatitis C virus, 72 h) fell in the range of 1 to 10 µM.

Molecule `CCOc1nc(NCc2ccc(S(N)(=O)=O)cc2)nc2ccc(-c3ccc(F)c(NS(=O)(=O)C4CC4)c3)cc12` [Example 251, 4-{[6-(3-Cyclopropanesulfonylamino-4-fluoro-phenyl)-4-ethoxy-quinazolin-2-ylamino]-methyl}-benzenesulfonamide] had a CC50 at 3 days in series [1] of less than 10 µM. Also, the EC50 in the series on HCV replicon (Hepatitis C virus, 72 h) was less than 0.3 µM.

`CCOc1nc(NCc2ccc(S(N)(=O)=O)cc2)nc2ccc(-c3cccc(S(N)(=O)=O)c3)cc12` [Example 252, 4-{[6-(3-aminosulfonyl-phenyl)-4-ethoxy-quinazolin-2-ylamino]-methyl}-benzenesulfonamide]: the CC50 at 3 days in series [1] was less than 10 µM. In the series with HCV replicon (Hepatitis C virus, 72 h), this molecule registered an EC50 of less than 0.3 µM.

On to `CCOc1nc(NCc2ccc(S(N)(=O)=O)cc2)nc2ccc(-c3ccc(NC(=O)N4CCCC4)cc3)cc12` [Example 253, pyrrolidine-1-carboxylic acid {4-[4-ethoxy-2-(4-sulfamoyl-benzylamino)-quinazolin-6-yl]-phenyl}-amide], for which the CC50 at 3 days in series [1] lay in the range of 10 to 20 µM. In the series on HCV replicon (Hepatitis C virus, 72 h), this molecule showed an EC50 of less than 0.3 µM.

As for `CCOc1nc(NCc2ccc(S(N)(=O)=O)cc2)nc2ccc(-c3ccc(NC(N)=O)cc3)cc12` [Example 254, 4-{[4-ethoxy-6-(4-ureido-phenyl)-quinazolin-2-ylamino]-methyl}-benzenesulfonamide], the CC50 at 3 days in series [1] was less than 10 µM. For the same molecule, the EC50 with HCV replicon (Hepatitis C virus, 72 h) was less than 0.3 µM.

On to `CCOc1nc(NCc2ccc(S(N)(=O)=O)cc2)nc2ccc(-c3ccc(C(N)=O)cc3)cc12` [Example 255, 4-[4-Ethoxy-2-(4-sulfamoyl-benzylamino)-quinazolin-6-yl]-benzamide], for which, in series [1], the CC50 at 3 days was less than 10 µM. Also, the EC50 in the series with HCV replicon (Hepatitis C virus, 72 h) was less than 0.3 µM.

`CCOc1nc(NCc2ccc(S(N)(=O)=O)cc2)nc2ccc(-c3ccc(C(=O)NC4CC4)cc3)cc12` [Example 256, N-Cyclopropyl-4-[4-ethoxy-2-(4-sulfamoyl-benzylamino)-auinazolin-6-yl]-benzamide] yielded a CC50 in the series on Huh-7 HCV replicon cells of less than 10 µM. The molecule further had an EC50 on HCV replicon of less than 0.3 µM.

On to `CCCc1ncnc2ccc(-c3ccc(F)cc3)cc12` [Example 259, 6-(4-Fluoro-phenyl)-4-propyl-quinazoline], for which the CC50 at 3 days in series [1] was more than 20 µM. Also, the EC50 with HCV replicon (Hepatitis C virus, 72 h) was in the range of 1 to 10 µM.

“(R)-4-[2-Amino-4-(tetrahydro-furan-3-yloxy)-quinazolin-6-yl]-N-[2-(1-methyl-pyrrolidin-2-yl)-ethyl]-benzamide [Example 221]” came in with a CC50 with Huh-7 HCV replicon cells of 10 to 20 µM. The molecule also returned a concentration for a half-maximal effect (EC50) at HCV replicon of 0.3 to 1 µM.

As usually defined, the CC50 is the concentration that lowers cell viability or growth by half. In general, EC50 refers to the concentration that produces a half-maximal response. High values mean a need for much substance, low ones an effect from little substance.
